Experimental data as given in the Kinase Knowledgebase extract (Sharma et al. 2016).
Values joined by “and” are separate entries in the source; they are usually repeats but may differ in a detail not shown here. Identical values can stand only once.

Molecular target: MAPK14 (human) (UniProt Q16539)
Experiment: Inhibition of LPS Stimulated TNF Production by U937 Cells
Details: for inhibition: concentration not given here

MAPK14 (human), sequence (Q16539 whole entry, looked up): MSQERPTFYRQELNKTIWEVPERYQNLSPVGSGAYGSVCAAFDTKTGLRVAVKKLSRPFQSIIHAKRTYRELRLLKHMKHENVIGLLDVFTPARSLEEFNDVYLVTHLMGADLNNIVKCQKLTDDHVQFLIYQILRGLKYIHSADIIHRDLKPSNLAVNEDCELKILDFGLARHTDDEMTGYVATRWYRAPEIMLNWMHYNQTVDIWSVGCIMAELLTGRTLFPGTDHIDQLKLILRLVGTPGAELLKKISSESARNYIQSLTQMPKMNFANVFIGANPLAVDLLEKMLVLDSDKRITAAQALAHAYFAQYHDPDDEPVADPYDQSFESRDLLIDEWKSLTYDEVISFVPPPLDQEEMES

## C[C@H](NS(=O)(=O)c1cccc(Cl)c1)c1[nH]nc(-c2ccc(F)cc2)c1-c1ccncc1
  inhibition: 93%

## Cc1noc(C)c1S(=O)(=O)NCCCc1[nH]nc(-c2ccc(F)cc2)c1-c1ccncc1
  inhibition: 85%

## Cc1ccccc1C(=O)N[C@@H](C)c1[nH]nc(-c2ccc(F)cc2)c1-c1ccncc1
  inhibition: 34%

## CN(C)CCn1cc(-c2ccnc(N(C)C)c2)c(-c2ccc(F)cc2)n1
  IC50: > 10000 nM

## Cc1c(Cl)cccc1S(=O)(=O)NCc1[nH]nc(-c2ccc(F)cc2)c1-c1ccncc1
  inhibition: 15%

## CCc1ccc(S(=O)(=O)NCc2[nH]nc(-c3ccc(F)cc3)c2-c2ccncc2)cc1
  inhibition: 8%

## C[C@@H](NC(=O)c1c(Cl)cccc1Cl)c1[nH]nc(-c2ccc(F)cc2)c1-c1ccncc1
  inhibition: 87%

## C[C@@H](NC(=O)Nc1cccc(F)c1)c1[nH]nc(-c2ccc(F)cc2)c1-c1ccncc1
  inhibition: 27%

## COc1ccc(C)cc1S(=O)(=O)N[C@@H](C)c1[nH]nc(-c2ccc(F)cc2)c1-c1ccncc1
  inhibition: 76%

## C[C@@H](NS(=O)(=O)c1cccc2nonc12)c1[nH]nc(-c2ccc(F)cc2)c1-c1ccncc1
  inhibition: 96%

## C[C@H](NS(=O)(=O)c1ccccc1Cl)c1[nH]nc(-c2ccc(F)cc2)c1-c1ccncc1
  inhibition: 94%

## CCOC(=O)CCCC(=O)NCc1[nH]nc(-c2ccc(F)cc2)c1-c1ccncc1
  inhibition: 22%

## C[C@@H](NS(=O)(=O)c1ccc(F)cc1Cl)c1[nH]nc(-c2ccc(F)cc2)c1-c1ccncc1
  inhibition: 81%

## O=C(NCc1[nH]nc(-c2ccc(F)cc2)c1-c1ccncc1)c1cccc(C(F)(F)F)c1F
  inhibition: 29%

## CNC(=O)CC[C@H](NC(=O)c1ccccc1F)c1[nH]nc(-c2ccc(F)cc2)c1-c1ccncc1
  IC50: > 1000 nM

## C[C@H](NS(=O)(=O)c1ccc(-c2ccccn2)s1)c1[nH]nc(-c2ccc(F)cc2)c1-c1ccncc1
  inhibition: 92%

## O=C(NCc1[nH]nc(-c2ccc(F)cc2)c1-c1ccncc1)c1c(Cl)cc(Cl)cc1Cl
  inhibition: 100%

## Fc1ccc(CNc2cc(-c3cn(CCN4CCOCC4)nc3-c3ccc(F)cc3)ccn2)cc1
  IC50: 180 nM and 450 nM

## C[C@@H](NC(=O)c1c(F)cc(F)cc1F)c1[nH]nc(-c2ccc(F)cc2)c1-c1ccncc1
  inhibition: 75%

## C[C@@H](NC(=O)c1ccccc1Br)c1[nH]nc(-c2ccc(F)cc2)c1-c1ccncc1
  inhibition: 87%

## C[C@H](NC(=O)c1c(Cl)cccc1Cl)c1[nH]nc(-c2ccc(F)cc2)c1-c1ccncc1
  inhibition: 35%

## C[C@@H](NC(=O)c1ccccc1)c1[nH]nc(-c2ccc(F)cc2)c1-c1ccncc1
  inhibition: 19%

## Cc1noc(C)c1S(=O)(=O)NCc1[nH]nc(-c2ccc(F)cc2)c1-c1ccncc1
  inhibition: 1%

## C[C@H](NC(=O)NCc1ccccc1)c1[nH]nc(-c2ccc(F)cc2)c1-c1ccncc1
  IC50: 840 nM

## C[C@@H](NS(=O)(=O)c1ccc(-c2ccccn2)s1)c1[nH]nc(-c2ccc(F)cc2)c1-c1ccncc1
  inhibition: 68%

## C[C@H](NC(=O)c1ccccc1F)c1[nH]nc(-c2ccc(F)cc2)c1-c1ccncc1
  inhibition: 31%

## Cc1cccc(C)c1NC(=O)NCc1[nH]nc(-c2ccc(F)cc2)c1-c1ccncc1
  IC50: 2360 nM

## Cc1[nH]nc(-c2ccc(F)cc2)c1-c1ccncc1
  IC50: 222 nM

## C[C@@H](NC(=O)c1cccc(F)c1F)c1[nH]nc(-c2ccc(F)cc2)c1-c1ccncc1
  inhibition: 64%

## CC1(C)[C@@H]2CC[C@]1(S(=O)(=O)NCCc1[nH]nc(-c3ccc(F)cc3)c1-c1ccncc1)C(=O)C2
  inhibition: 56%

## CCOC(=O)c1ccc(NC(=O)NCc2[nH]nc(-c3ccc(F)cc3)c2-c2ccncc2)cc1
  inhibition: 13%

## CCCNC(=O)Cn1nc(-c2ccc(F)cc2)c(-c2ccncc2)c1C
  inhibition: 31%

## C[C@H](NS(=O)(=O)c1cc(Cl)cc(Cl)c1)c1[nH]nc(-c2ccc(F)cc2)c1-c1ccncc1
  inhibition: 65%

## COc1ccc(C(=O)NCc2[nH]nc(-c3ccc(F)cc3)c2-c2ccncc2)cc1OC
  inhibition: 22%

## O=C(NCc1[nH]nc(-c2ccc(F)cc2)c1-c1ccncc1)c1cccc(C(F)(F)F)c1
  inhibition: 13%

## C[C@@H](NC(=O)c1ccccn1)c1[nH]nc(-c2ccc(F)cc2)c1-c1ccncc1
  inhibition: 24%

## CCCOC(=O)N[C@@H](C)c1[nH]nc(-c2ccc(F)cc2)c1-c1ccncc1
  inhibition: 61%

## C[C@H](NC(=O)c1c(F)cccc1F)c1[nH]nc(-c2ccc(F)cc2)c1-c1ccncc1
  inhibition: 56%

## Clc1ccc(-c2n[nH]cc2-c2ccncc2)cc1Cl
  IC50: 170 nM

## O=C(NCc1[nH]nc(-c2ccc(F)cc2)c1-c1ccncc1)[C@@H]1C[C@@H]1c1ccccc1
  inhibition: 28%

## Cc1ccccc1S(=O)(=O)NCc1[nH]nc(-c2ccc(F)cc2)c1-c1ccncc1
  inhibition: 24%

## CN(C(=O)N[C@H](Cc1ccccc1)c1[nH]nc(-c2ccc(F)cc2)c1-c1ccncc1)c1ccccc1
  IC50: > 1000 nM

## C[C@H](NS(=O)(=O)c1ccc(Cl)cc1)c1[nH]nc(-c2ccc(F)cc2)c1-c1ccncc1
  inhibition: 88%

## C[C@@H](NS(=O)(=O)c1ccc(CNC(=O)c2ccccc2)s1)c1[nH]nc(-c2ccc(F)cc2)c1-c1ccncc1
  inhibition: 88%

## C[C@H](NC(=O)N[C@H](C)c1ccccc1)c1[nH]nc(-c2ccc(F)cc2)c1-c1ccncc1
  inhibition: 41%

## O=S(=O)(NCCCc1[nH]nc(-c2ccc(F)cc2)c1-c1ccncc1)c1ccccc1Br
  IC50: 480 nM

## C[C@@H](NC(=O)c1ccccc1Cl)c1[nH]nc(-c2ccc(F)cc2)c1-c1ccncc1
  inhibition: 87%

## Cc1n[nH]c(-c2ccc3c(c2)OCO3)c1-c1ccncc1
  IC50: 1690 nM

## C[C@@H](NC(=O)c1cccc(Cl)c1Cl)c1[nH]nc(-c2ccc(F)cc2)c1-c1ccncc1
  inhibition: 43%

## CNC(=O)CC[C@H](NS(=O)(=O)c1ccccc1F)c1[nH]nc(-c2ccc(F)cc2)c1-c1ccncc1
  inhibition: 1%

## CSCCC(=O)NCc1[nH]nc(-c2ccc(F)cc2)c1-c1ccncc1
  inhibition: 13%

## Fc1ccc(-c2n[nH]cc2-c2ccnc(-c3c[nH]nc3-c3ccc(F)cc3)c2)cc1
  IC50: 602 nM

## CCCNC(=O)NCc1[nH]nc(-c2ccc(F)cc2)c1-c1ccncc1
  inhibition: 39%

## Cc1n[nH]c(-c2cccc(Cl)c2)c1-c1ccncc1
  IC50: 74 nM

## O=C(NCCc1[nH]nc(-c2ccc(F)cc2)c1-c1ccncc1)Nc1ccc(F)cc1
  IC50: 2710 nM
  inhibition: 39%

## CCOc1ccc(-c2[nH]nc(C)c2-c2ccncc2)cc1
  IC50: 2360 nM

## Fc1ccc(-c2n[nH]cc2-c2ccnc3ccccc23)cc1
  IC50: 1130 nM

## COc1ccc(S(=O)(=O)NCc2[nH]nc(-c3ccc(F)cc3)c2-c2ccncc2)c([N+](=O)[O-])c1
  inhibition: 10%

## O=C(c1cccs1)N1CCC(c2[nH]nc(-c3ccc(F)cc3)c2-c2ccncc2)CC1
  IC50: 370 nM

## O=C(NCCc1[nH]nc(-c2ccc(F)cc2)c1-c1ccncc1)c1ccc(C(F)(F)F)cc1
  inhibition: 30%

## Cc1c(-c2ccncc2)c(-c2ccc(F)cc2)nn1CC(=O)NCCc1ccc(Oc2ccccc2)cc1
  IC50: 780 nM

## O=S(=O)(NCc1[nH]nc(-c2ccc(F)cc2)c1-c1ccncc1)c1cccc2nonc12
  inhibition: 54%

## COc1cccc(CC(=O)N2CCC(c3[nH]nc(-c4ccc(F)cc4)c3-c3ccncc3)CC2)c1
  IC50: 770 nM

## CC(C)COC(=O)NCc1[nH]nc(-c2ccc(F)cc2)c1-c1ccncc1
  IC50: 720 nM

## O=S(=O)(c1ccccc1C(F)(F)F)N1CCC(c2[nH]nc(-c3ccc(F)cc3)c2-c2ccncc2)CC1
  inhibition: 29%

## O=C(NCCCc1[nH]nc(-c2ccc(F)cc2)c1-c1ccncc1)NCCc1ccccn1
  inhibition: 24%
